Test results taken from BindingDB's records for doi:10.1021/acs.jmedchem.9b01709 (The Institute of Cancer Research, 2019).

Target: Heat shock 70 kDa protein 1A (HSP72/HSPA1A) (Homo sapiens) (UniProt P0DMV8)
Test: Covalent inhibition of HSP72-NBD (unknown origin) nucleotide-derived FP probe displacement based by fluorescence polarization assay

Chain of Heat shock 70 kDa protein 1A (HSP72/HSPA1A) (Homo sapiens) (P0DMV8 whole entry, looked up): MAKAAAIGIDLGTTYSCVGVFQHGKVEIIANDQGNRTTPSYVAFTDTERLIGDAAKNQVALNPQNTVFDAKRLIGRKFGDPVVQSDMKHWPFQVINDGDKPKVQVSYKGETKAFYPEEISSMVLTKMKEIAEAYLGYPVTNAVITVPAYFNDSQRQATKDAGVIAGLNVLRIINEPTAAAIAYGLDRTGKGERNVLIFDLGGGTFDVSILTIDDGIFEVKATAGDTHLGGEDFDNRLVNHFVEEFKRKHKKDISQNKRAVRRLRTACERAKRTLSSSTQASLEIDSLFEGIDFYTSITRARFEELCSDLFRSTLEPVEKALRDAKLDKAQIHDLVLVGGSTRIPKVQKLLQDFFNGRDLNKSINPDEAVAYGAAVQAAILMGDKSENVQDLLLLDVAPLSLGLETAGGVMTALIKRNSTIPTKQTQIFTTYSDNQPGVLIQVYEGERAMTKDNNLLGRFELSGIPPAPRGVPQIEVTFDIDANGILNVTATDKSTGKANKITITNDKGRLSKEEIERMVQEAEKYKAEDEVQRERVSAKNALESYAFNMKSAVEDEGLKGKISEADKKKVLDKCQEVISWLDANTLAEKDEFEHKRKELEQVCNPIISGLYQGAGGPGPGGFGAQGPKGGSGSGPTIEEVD

Ki: < 200 nM
Structure (SMILES): N#Cc1ccc(COC[C@H]2O[C@@H](n3c(NCc4ccc(Cl)c(Cl)c4)nc4c(N)ncnc43)[C@H](O)[C@@H]2O)cc1 [adenosine-derived inhibitor (Grp78), 13]
